Reference: the kinase profiling compilation of Christmann-Franck et al. (2016)

Key:
Experiment in all cases: radiometric filter-binding kinase assay
[1] = test system: AKT1 (human), P31749 [S473D]
[2] = target: CSNK2A1 (human) (UniProt P68400)
[3] = target: CaMK1 (human) (UniProt Q14012)
[4] = target: DAPK1 (human) (UniProt P53355)
[5] = target: DYRK1A (human) (UniProt Q13627)
[6] = target: DYRK2 (human) (UniProt Q92630)
[7] = target: DYRK3 (human) (UniProt O43781)
[8] = target: EEF2K (human) (UniProt O00418)
[9] = target: EPHA2 (human) (UniProt P29317)
[10] = target: EPHB1 (human) (UniProt P54762)
[11] = target: EPHB3 (human) (UniProt P54753)
[12] = target: ERBB4 (human) (UniProt Q15303)
[13] = target: HIPK1 (human) (UniProt Q86Z02)
[14] = target: HIPK2 (human) (UniProt Q9H2X6); conditions: compound 10.0 µM
[15] = target: HIPK3 (human) (UniProt Q9H422)
[16] = target: IKBKE (human) (UniProt Q14164)
[17] = test system: LCK (mouse); conditions: accession and sequence are those of the human protein
[18] = target: MAP2K6 (human) (UniProt P52564)
[19] = target: MAP3K9 (human) (UniProt P80192)
[20] = target: MAPK11 (human) (UniProt Q15759)
[21] = target: MAPK13 (human) (UniProt O15264)
[22] = target: MAPK14 (human) (UniProt Q16539)
[23] = target: MAPKAPK5 (human) (UniProt Q8IW41)
[24] = target: MARK1 (human) (UniProt Q9P0L2)
[25] = target: MARK3 (human) (UniProt P27448)
[26] = target: MST4 (human) (UniProt Q9P289)
[27] = target: NEK6 (human) (UniProt Q9HC98)
[28] = target: NUAK1 (human) (UniProt O60285)
[29] = target: PAK4 (human) (UniProt O96013)
[30] = target: PAK6 (human) (UniProt Q9NQU5)
[31] = target: PAK7 (human) (UniProt Q9P286)
[32] = target: PRKCZ (human) (UniProt Q05513)
[33] = test system: ROCK2 (rat); conditions: accession and sequence are those of the human protein
[34] = target: RPS6KA5 KD1 KD2 (human) (UniProt O75582)
[35] = target: TAOK1 (human) (UniProt Q7L7X3)

Sequence of RPS6KA5 KD1 KD2 (human) (O75582 whole entry, looked up): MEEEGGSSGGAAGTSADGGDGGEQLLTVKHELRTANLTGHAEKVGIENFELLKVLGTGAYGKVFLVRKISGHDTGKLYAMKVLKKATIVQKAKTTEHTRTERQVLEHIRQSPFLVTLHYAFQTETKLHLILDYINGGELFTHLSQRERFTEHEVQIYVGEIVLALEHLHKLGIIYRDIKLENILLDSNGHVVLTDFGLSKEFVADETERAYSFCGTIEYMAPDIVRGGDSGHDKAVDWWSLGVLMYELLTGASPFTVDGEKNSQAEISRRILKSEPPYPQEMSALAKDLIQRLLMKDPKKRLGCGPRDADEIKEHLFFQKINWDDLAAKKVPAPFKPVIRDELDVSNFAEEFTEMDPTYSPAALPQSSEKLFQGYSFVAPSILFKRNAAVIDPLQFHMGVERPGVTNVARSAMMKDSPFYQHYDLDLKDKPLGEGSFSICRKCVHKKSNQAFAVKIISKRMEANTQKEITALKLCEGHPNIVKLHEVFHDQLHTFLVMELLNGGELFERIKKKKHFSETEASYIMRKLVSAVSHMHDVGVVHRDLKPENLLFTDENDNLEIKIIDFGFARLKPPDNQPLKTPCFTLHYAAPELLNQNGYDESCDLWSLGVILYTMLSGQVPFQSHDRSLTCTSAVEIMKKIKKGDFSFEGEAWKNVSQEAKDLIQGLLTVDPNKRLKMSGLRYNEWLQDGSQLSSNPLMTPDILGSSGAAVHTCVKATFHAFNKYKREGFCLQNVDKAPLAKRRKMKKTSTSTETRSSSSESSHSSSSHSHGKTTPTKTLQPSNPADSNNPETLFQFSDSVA
Sequence of PRKCZ (human) (Q05513 whole entry, looked up): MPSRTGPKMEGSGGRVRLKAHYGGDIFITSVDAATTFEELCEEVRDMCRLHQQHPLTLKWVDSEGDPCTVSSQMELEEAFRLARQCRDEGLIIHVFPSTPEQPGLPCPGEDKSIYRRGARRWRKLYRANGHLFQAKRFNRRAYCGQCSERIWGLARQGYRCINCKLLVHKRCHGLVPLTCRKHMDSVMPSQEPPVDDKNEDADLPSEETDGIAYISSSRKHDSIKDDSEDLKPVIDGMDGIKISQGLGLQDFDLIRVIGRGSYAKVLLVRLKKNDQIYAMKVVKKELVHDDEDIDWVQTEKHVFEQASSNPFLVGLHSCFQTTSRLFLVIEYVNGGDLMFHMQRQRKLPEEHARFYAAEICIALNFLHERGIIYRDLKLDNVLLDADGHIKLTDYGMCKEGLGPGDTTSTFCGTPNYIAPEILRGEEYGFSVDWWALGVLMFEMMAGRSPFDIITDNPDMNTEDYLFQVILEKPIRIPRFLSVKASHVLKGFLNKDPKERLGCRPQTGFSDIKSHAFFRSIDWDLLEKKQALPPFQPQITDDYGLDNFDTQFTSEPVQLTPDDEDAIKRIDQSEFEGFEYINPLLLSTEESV
Sequence of MST4 (human) (Q9P289 whole entry, looked up): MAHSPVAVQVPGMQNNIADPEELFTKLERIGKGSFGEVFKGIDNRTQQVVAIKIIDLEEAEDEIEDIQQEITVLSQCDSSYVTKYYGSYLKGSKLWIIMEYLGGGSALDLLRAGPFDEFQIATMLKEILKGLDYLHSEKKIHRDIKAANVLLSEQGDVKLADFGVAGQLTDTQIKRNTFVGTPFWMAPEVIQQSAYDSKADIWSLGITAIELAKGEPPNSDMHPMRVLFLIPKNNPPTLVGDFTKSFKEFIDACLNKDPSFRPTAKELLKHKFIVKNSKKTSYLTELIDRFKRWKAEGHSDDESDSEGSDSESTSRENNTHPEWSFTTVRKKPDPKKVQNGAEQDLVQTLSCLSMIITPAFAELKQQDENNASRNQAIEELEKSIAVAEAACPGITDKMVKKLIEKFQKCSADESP
Sequence of DAPK1 (human) (P53355 whole entry, looked up): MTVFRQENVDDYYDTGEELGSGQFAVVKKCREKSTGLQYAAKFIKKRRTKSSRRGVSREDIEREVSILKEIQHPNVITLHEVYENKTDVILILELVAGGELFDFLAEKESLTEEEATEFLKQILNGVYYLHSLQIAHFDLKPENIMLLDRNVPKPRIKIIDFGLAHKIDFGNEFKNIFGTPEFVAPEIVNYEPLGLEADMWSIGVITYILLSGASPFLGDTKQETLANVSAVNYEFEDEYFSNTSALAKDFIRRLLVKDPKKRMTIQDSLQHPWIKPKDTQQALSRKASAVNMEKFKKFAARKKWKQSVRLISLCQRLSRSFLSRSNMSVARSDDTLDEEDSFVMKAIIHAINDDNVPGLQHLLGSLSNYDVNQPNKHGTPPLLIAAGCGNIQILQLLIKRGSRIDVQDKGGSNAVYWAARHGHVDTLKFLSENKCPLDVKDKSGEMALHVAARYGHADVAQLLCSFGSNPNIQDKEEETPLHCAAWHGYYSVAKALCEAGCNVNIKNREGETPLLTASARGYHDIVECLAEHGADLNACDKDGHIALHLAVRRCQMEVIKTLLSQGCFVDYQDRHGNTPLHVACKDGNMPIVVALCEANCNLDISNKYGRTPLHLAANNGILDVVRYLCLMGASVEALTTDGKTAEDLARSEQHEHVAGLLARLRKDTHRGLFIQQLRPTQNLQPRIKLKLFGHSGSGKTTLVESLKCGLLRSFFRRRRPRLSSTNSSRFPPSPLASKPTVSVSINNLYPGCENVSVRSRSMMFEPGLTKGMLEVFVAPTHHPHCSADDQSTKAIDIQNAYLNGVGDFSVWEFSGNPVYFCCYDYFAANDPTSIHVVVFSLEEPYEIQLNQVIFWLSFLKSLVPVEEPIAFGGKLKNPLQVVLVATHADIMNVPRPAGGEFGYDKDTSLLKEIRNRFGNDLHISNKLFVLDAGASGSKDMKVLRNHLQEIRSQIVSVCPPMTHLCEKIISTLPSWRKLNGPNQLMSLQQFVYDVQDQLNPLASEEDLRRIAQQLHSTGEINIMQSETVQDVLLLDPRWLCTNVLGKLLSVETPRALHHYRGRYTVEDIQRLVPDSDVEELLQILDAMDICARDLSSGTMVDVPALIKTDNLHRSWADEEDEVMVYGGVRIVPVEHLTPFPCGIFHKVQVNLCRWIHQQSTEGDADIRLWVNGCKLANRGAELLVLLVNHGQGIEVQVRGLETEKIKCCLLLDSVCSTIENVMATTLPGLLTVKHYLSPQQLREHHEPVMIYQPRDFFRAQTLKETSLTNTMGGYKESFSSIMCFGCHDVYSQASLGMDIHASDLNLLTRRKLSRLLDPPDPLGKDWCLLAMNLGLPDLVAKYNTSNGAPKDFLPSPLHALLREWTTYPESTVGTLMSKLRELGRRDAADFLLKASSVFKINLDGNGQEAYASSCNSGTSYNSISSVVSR
Sequence of DYRK3 (human) (O43781 whole entry, looked up): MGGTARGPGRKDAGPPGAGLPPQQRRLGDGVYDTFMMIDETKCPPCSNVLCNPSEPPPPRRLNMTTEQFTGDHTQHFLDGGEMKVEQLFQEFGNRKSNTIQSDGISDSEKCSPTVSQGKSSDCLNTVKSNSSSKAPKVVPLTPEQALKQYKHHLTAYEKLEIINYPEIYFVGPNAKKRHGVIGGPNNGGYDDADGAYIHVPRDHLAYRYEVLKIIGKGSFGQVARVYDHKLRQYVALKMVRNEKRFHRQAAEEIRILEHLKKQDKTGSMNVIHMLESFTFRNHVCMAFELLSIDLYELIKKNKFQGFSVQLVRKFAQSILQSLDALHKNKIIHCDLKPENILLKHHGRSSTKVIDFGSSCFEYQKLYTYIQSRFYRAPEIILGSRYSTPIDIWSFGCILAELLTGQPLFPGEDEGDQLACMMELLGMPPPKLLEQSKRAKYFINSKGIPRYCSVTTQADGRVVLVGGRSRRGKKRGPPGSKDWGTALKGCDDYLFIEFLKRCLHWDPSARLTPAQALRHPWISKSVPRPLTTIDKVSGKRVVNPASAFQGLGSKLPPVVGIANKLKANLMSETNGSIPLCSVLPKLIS
Sequence of MARK1 (human) (Q9P0L2 whole entry, looked up): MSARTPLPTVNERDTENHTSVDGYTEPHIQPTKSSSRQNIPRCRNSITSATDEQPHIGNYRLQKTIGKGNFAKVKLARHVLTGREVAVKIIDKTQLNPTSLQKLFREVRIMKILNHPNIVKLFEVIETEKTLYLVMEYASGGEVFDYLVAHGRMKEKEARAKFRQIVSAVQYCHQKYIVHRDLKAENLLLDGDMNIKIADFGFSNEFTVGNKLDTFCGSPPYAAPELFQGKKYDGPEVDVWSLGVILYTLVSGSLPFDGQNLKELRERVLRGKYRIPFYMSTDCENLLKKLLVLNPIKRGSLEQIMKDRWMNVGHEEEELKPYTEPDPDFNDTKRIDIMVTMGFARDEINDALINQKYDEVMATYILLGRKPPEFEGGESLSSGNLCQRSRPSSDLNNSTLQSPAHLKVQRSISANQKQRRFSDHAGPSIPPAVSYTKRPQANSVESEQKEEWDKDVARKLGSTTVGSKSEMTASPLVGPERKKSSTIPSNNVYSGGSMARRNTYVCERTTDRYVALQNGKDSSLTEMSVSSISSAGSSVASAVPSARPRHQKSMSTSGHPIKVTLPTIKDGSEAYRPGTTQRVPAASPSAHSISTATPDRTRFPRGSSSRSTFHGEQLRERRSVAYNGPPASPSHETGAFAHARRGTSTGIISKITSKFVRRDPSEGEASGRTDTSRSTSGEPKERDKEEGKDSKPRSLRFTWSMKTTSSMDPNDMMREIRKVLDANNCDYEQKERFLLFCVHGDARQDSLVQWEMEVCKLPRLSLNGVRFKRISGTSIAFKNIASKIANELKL
Sequence of NEK6 (human) (Q9HC98 whole entry, looked up): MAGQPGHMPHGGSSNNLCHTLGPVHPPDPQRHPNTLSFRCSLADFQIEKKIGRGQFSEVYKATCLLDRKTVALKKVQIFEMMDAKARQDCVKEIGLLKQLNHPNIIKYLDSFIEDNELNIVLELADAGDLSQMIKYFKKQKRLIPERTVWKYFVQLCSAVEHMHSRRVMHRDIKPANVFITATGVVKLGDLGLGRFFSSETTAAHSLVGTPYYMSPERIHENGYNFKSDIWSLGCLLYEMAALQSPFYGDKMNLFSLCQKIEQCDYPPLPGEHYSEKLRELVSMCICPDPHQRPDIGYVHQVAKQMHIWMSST

Compound: C=CC(=O)N1CCC[C@@H](n2nc(-c3ccc(Oc4ccccc4)cc3)c3c(N)ncnc32)C1
- residual activity ([1]; compound 0.1 µM): 79%
- residual activity ([1]; compound 1.0 µM): 97%
- residual activity ([1]; compound 10.0 µM): 78%
- residual activity ([2]; compound 0.1 µM): 104%
- residual activity ([2]; compound 1.0 µM): 115%
- residual activity ([2]; compound 10.0 µM): 111%
- residual activity ([3]; compound 0.1 µM): 80%
- residual activity ([3]; compound 1.0 µM): 99%
- residual activity ([3]; compound 10.0 µM): 33%
- residual activity ([4]; compound 0.1 µM): 95%
- residual activity ([4]; compound 1.0 µM): 95%
- residual activity ([4]; compound 10.0 µM): 84%
- residual activity ([5]; compound 0.1 µM): 112%
- residual activity ([5]; compound 1.0 µM): 105%
- residual activity ([5]; compound 10.0 µM): 87%
- residual activity ([6]; compound 0.1 µM): 83%
- residual activity ([6]; compound 1.0 µM): 105%
- residual activity ([6]; compound 10.0 µM): 79%
- residual activity ([7]; compound 0.1 µM): 93%
- residual activity ([7]; compound 1.0 µM): 86%
- residual activity ([7]; compound 10.0 µM): 68%
- residual activity ([8]; compound 0.1 µM): 88%
- residual activity ([8]; compound 10.0 µM): 90%
- residual activity ([9]; compound 0.1 µM): 91%
- residual activity ([9]; compound 1.0 µM): 98%
- residual activity ([9]; compound 10.0 µM): 64%
- residual activity ([10]; compound 0.1 µM): 72%
- residual activity ([10]; compound 1.0 µM): 90%
- residual activity ([10]; compound 10.0 µM): 86%
- residual activity ([11]; compound 0.1 µM): 99%
- residual activity ([11]; compound 1.0 µM): 96%
- residual activity ([11]; compound 10.0 µM): 51%
- residual activity ([12]; compound 0.1 µM): 7%
- residual activity ([12]; compound 1.0 µM): 8%
- residual activity ([12]; compound 10.0 µM): 5%
- residual activity ([13]; compound 0.1 µM): 75%
- residual activity ([13]; compound 1.0 µM): 87%
- residual activity ([13]; compound 10.0 µM): 75%
- residual activity [14]: 66%
- residual activity ([15]; compound 0.1 µM): 100%
- residual activity ([15]; compound 1.0 µM): 123%
- residual activity ([15]; compound 10.0 µM): 110%
- residual activity ([16]; compound 0.1 µM): 100%
- residual activity ([16]; compound 1.0 µM): 95%
- residual activity ([16]; compound 10.0 µM): 66%
- residual activity ([17]; compound 0.1 µM): 22%
- residual activity ([17]; compound 10.0 µM): 9%
- residual activity ([18]; compound 0.1 µM): 82%
- residual activity ([18]; compound 1.0 µM): 97%
- residual activity ([18]; compound 10.0 µM): 61%
- residual activity ([19]; compound 0.1 µM): 104%
- residual activity ([19]; compound 1.0 µM): 89%
- residual activity ([19]; compound 10.0 µM): 27%
- residual activity ([20]; compound 1.0 µM): 103%
- residual activity ([20]; compound 10.0 µM): 68%
- residual activity ([21]; compound 0.1 µM): 88%
- residual activity ([21]; compound 1.0 µM): 104%
- residual activity ([21]; compound 10.0 µM): 80%
- residual activity ([22]; compound 0.1 µM): 99%
- residual activity ([22]; compound 1.0 µM): 103%
- residual activity ([22]; compound 10.0 µM): 101%
- residual activity ([23]; compound 0.1 µM): 101%
- residual activity ([23]; compound 1.0 µM): 107%
- residual activity ([23]; compound 10.0 µM): 83%
- residual activity ([24]; compound 0.1 µM): 101%
- residual activity ([24]; compound 1.0 µM): 103%
- residual activity ([24]; compound 10.0 µM): 88%
- residual activity ([25]; compound 0.1 µM): 98%
- residual activity ([25]; compound 1.0 µM): 94%
- residual activity ([25]; compound 10.0 µM): 76%
- residual activity ([26]; compound 0.1 µM): 100%
- residual activity ([26]; compound 1.0 µM): 73%
- residual activity ([26]; compound 10.0 µM): 27%
- residual activity ([27]; compound 0.1 µM): 76%
- residual activity ([27]; compound 1.0 µM): 99%
- residual activity ([27]; compound 10.0 µM): 93%
- residual activity ([28]; compound 0.1 µM): 99%
- residual activity ([28]; compound 1.0 µM): 82%
- residual activity ([28]; compound 10.0 µM): 26%
- residual activity ([29]; compound 0.1 µM): 93%
- residual activity ([29]; compound 1.0 µM): 85%
- residual activity ([29]; compound 10.0 µM): 42%
- residual activity ([30]; compound 0.1 µM): 95%
- residual activity ([30]; compound 1.0 µM): 97%
- residual activity ([30]; compound 10.0 µM): 82%
- residual activity ([31]; compound 0.1 µM): 93%
- residual activity ([31]; compound 1.0 µM): 97%
- residual activity ([31]; compound 10.0 µM): 50%
- residual activity ([32]; compound 0.1 µM): 90%
- residual activity ([32]; compound 1.0 µM): 98%
- residual activity ([32]; compound 10.0 µM): 81%
- residual activity ([33]; compound 0.1 µM): 93%
- residual activity ([33]; compound 1.0 µM): 111%
- residual activity ([33]; compound 10.0 µM): 69%
- residual activity ([34]; compound 0.1 µM): 94%
- residual activity ([34]; compound 1.0 µM): 101%
- residual activity ([34]; compound 10.0 µM): 55%
- residual activity ([35]; compound 0.1 µM): 113%
- residual activity ([35]; compound 1.0 µM): 119%
